Reference: patent US20220204510A1, “2,3-DIHYDRO-1H-PYRROLIZINE-7-FORMAMIDE DERIVATIVE AND APPLICATION THEREOF” (CHIA TAI TIANQING PHARMACEUTICAL GROUP CO., LTD., priority 2018, published 2022)
Read-outs that look alike come from different tables or passages of the source.

What was measured:
[1] = Metabolic stability in liver microsomes; assay type: in vitro ADME, human
Protocol: (§1) Experimental objective: to evaluate the metabolic stability of the test compound in CD-1 mice and human liver microsomes
(§2) Experimental procedures: first, the test compound (10 mM) was subjected to a two-step dilution, where the compound was diluted to an intermediate concentration of 100 μM with 100% methanol, and the working solution was diluted to 10 μM with a potassium phosphate buffer; eight 96-well incubation plates were prepared, and named T0, T5, T10, T20, T30, T60, Blank and NCF60, respectively; the reaction time points corresponding to the first 6 incubation plates were 0, 5, 10, 20, 30 and 60 min, respectively; for the Blank plate, neither the test compound nor a control compound was added, and for the NCF60 plate, potassium phosphate buffer was used in an incubation of 60 min in place of a NADPH regeneration system solution; 10 μL of the test compound working solution and 80 μL of the microsome working solution (liver microsome protein concentration was 0.625 mg/mL) were added to the T0, T5, T10, T20, T30, T60 and NCF60 plates, while only the microsome working solution was added to the Blank plate, and all the incubation plates were then placed in a 37° C. water bath for pre-incubation for about 10 min; after the pre-incubation, 10 μL of a NADPH regeneration system working solution was added into each sample well of all the plates except the NCF60 plate and T0 plate to start the reaction, and 10 μL of potassium phosphate buffer was added to each well of the NCF60 plate; therefore, in the test compound or control compound samples, the final reaction concentrations of the compound, testosterone, diclofenac and propafenone were 1 μM, the concentration of the liver microsomes was 0.5 mg/mL, and the final concentrations of DMSO and acetonitrile in the reaction system were 0.01% (v/v) and 0.99% (v/v), respectively; after incubation for an appropriate time (such as 5, 10, 20, 30, and 60 min), 300 μL of a stop solution (acetonitrile solution containing 100 ng/mL tolbutamide and 100 ng/mL labetalol) was added to each sample well to stop the reaction; 300 μL of the stop solution and then 10 μL of the NADPH working solution were added to the T0 plate, all the sample plates were shaken and centrifuged in a centrifuge (3220×g) for 20 min, and then 100 μL of supernatant was taken from each well and diluted with 300 μL of pure water for liquid chromatography-tandem mass spectrometry analysis.

[2] = Metabolic stability in liver microsomes; assay type: in vitro ADME; settings: mouse, CD-1 mice liver microsomes
Protocol: as §1, §2

CYP2C19 = target: T1, CYP2C19 (Homo sapiens, UniProt P33261); assay: Inhibition of human liver microsomal cytochrome P450 isoenzymes; assay type: in vitro ADME; settings: human liver microsomes
T1 construct: from tissue; host or cells: human liver microsomes
Protocol: (§3) Experimental objective: to determine the inhibitory effect of the test compound on the activity of human liver microsomal cytochrome P450 isoenzymes (CYP1A2, CYP2C9, CYP2C19, CYP2D6 and CYP3A4). Experimental procedures: first, the test compound (10 mM) was diluted in gradient to prepare working solutions (100× final concentration) at concentrations of: 5, 1.5, 0.5, 0.15, 0.05, 0.015, and 0.005 mM, and working solutions of positive inhibitors for P450 isoenzymes (CYP1A2, CYP2C9, CYP2C19, CYP2D6, and CYP3A4) and the specific substrate mixtures thereof (5 in 1) were prepared simultaneously; human liver microsomes frozen in a−80° C. refrigerator were thawed on ice, and after all thawed, the human liver microsomes were diluted with PB to prepare a working solution at a specific concentration (0.253 mg/mL); 20 μL of the substrate mixture (20 μL of PB was added into the blank well) and 158 μL of the working solution of human liver microsomes were added into the reaction plate which was then placed on ice for use; then 2 μL of the test compound at each concentration (N=1) and a specific inhibitor (N=2) were added into the corresponding well, and the group without the inhibitor (test compound or the positive inhibitor) was added with a corresponding organic solvent as a control sample (the test compound control sample was 1:1 DMSO:MeOH; the positive control sample was 1:9 DMSO:MeOH); after pre-incubation under a 37° C. water bath for 10 min, 20 μL of a coenzyme factor (NADPH) solution was added into the reaction plate and incubated under a 37° C. water bath for 10 min, 400 μL of a cold acetonitrile solution (the internal standard was 200 ng/mL Tolbutamide and Labetalol) was added to terminate the reaction, and the reaction plate was placed on a shaker and shaken for 10 min; after centrifugation at 4,000 rpm for 20 min, 200 μL of the supernatant was collected and added to 100 μL of water to dilute the sample, and, finally, the plate was sealed, oscillated shaken evenly, and subjected to LC/MS/MS detection.

CYP1A2 = target: T2, CYP1A2 (Homo sapiens, UniProt P05177); assay: as above; assay type: in vitro ADME; settings: human liver microsomes
T2 construct: from tissue; host or cells: human liver microsomes
T2 sequence (P05177 1-516): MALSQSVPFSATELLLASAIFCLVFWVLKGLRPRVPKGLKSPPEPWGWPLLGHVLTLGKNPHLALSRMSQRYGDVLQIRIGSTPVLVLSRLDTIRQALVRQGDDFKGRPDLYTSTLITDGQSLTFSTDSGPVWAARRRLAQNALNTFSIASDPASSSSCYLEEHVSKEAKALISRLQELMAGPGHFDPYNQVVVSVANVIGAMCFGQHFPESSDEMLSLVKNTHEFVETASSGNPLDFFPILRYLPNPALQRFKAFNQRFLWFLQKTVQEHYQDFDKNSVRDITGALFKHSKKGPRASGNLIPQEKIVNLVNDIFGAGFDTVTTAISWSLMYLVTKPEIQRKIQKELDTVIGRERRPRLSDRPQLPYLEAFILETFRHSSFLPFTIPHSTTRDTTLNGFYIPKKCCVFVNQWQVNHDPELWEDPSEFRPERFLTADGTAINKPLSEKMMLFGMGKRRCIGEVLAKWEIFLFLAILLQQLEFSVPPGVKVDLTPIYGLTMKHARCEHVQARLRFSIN
Protocol: as §3

CYP2D6 = target: T3, CYP2D6 (Homo sapiens, UniProt P10635); assay: as above; assay type: in vitro ADME; settings: human liver microsomes
T3 construct: from tissue; host or cells: human liver microsomes
Protocol: as §3

CYP2C9 = target: T4, CYP2C9 (Homo sapiens, UniProt P11712); assay: as above; assay type: in vitro ADME; settings: human liver microsomes
T4 construct: from tissue; host or cells: human liver microsomes
Protocol: as §3

CYP3A4 = target: T5, CYP3A4 (Homo sapiens, UniProt P08684); assay: as above; assay type: in vitro ADME; settings: human liver microsomes
T5 construct: from tissue; host or cells: human liver microsomes
Protocol: as §3

HBV = assay: qPCR test in the HBV in vitro test (HBV DNA in HepG2.2.15 cells); assay type: cell-based; settings: Hepatitis B virus, 192 h, HBV DNA in HepG2.2.15 culture medium, day 8, read-out: Half maximal inhibitory concentration (EC50) of HBV
Protocol: To evaluate the inhibitory effect of the compound on HBV by detecting content of HBV DNA in HepG2.2.15 cells in a real-time qPCR test, with EC50 of the compound as an indicator.
3.1. HepG2.2.15 cells (4×10^4 cells/well) were inoculated into a 96-well plate and cultured at 37° C. in 5% CO2 overnight. 3.2. On day 2, the compound was 3-fold diluted in gradient for a total of 8 dilution gradients. The compound at different concentrations was added into the culture wells in duplicate. The final concentration of DMSO in the culture medium was 1%. 1 μM GLS4 was used as a 100% inhibition control (the structure of GLS4 disclosed in WO2008154817A1 is as follows:
1% DMSO was used as a 0% inhibition control. 3.3. On day 5, the culture medium was replaced with a fresh culture medium containing the compound. 3.4. On day 8, the culture medium in the culture wells was collected, and the high-throughput DNA purification kit (Qiagen-51162) was used to extract DNA. For specific steps, refer to the product manual.
3.6. Each well of the 96-well PCR plate was added with 15 μL of the reaction mixture, and then with 10 μL of sample DNA or HBV DNA standard. 3.7. The reaction conditions for PCR: heating at 95° C. for 10 min, degeneration at 95° C. for 15 s, and extension at 60° C. for 1 min, with a total of 40 cycles.
3.8.1. Calculation of the inhibition percentage: % Inh.=[1−(DNA copy number in the sample−DNA copy number in 1 μM GLS4)/(DNA copy number in the DMSO control−DNA copy number in 1 μM GLS4)]×100. 3.8.2. Calculation of EC50: half maximal inhibitory concentration (EC50) of the compound for HBV was calculated using GraphPad Prism software. 3.8.3.

T1 sequence (P33261 whole entry): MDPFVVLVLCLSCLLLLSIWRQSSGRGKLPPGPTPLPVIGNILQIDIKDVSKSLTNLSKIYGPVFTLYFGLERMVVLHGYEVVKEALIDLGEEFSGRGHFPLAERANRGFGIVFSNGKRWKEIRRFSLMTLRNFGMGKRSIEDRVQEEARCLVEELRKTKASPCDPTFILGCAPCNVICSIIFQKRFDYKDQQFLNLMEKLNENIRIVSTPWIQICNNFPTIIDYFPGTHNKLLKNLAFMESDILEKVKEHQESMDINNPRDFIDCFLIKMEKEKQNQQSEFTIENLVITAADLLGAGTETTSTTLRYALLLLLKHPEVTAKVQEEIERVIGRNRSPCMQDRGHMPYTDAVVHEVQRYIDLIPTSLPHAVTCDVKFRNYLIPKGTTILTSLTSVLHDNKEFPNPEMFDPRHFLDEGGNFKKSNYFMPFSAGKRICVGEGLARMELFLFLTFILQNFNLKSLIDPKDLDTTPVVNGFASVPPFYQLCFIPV
T5 sequence (P08684 whole entry): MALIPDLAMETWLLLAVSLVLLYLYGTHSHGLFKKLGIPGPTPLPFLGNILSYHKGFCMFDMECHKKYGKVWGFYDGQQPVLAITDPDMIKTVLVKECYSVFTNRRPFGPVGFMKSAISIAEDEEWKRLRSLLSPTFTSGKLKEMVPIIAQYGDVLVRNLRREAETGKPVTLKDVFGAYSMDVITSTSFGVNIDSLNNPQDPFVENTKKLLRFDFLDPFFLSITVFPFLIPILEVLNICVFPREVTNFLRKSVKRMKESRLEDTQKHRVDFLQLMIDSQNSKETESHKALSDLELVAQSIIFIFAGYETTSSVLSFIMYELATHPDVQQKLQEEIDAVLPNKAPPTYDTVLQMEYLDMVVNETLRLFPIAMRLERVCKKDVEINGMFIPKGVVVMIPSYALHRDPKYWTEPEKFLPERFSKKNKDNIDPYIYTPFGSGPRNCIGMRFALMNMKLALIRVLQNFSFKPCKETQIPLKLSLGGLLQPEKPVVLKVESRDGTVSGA
T4 sequence (P11712 whole entry): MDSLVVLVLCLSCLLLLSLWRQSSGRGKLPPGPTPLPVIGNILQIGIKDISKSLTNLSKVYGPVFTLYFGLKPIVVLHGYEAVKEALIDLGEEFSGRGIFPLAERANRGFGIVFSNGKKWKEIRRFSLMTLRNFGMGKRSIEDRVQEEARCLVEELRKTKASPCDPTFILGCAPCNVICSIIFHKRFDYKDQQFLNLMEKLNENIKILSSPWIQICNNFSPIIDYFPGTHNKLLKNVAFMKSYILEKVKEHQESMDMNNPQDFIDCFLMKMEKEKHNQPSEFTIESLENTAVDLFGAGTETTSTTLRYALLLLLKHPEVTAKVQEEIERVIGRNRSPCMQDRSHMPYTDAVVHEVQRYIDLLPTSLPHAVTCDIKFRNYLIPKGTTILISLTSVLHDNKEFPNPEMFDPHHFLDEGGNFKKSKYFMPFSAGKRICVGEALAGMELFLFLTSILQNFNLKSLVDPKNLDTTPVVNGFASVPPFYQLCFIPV
T3 sequence (P10635 whole entry): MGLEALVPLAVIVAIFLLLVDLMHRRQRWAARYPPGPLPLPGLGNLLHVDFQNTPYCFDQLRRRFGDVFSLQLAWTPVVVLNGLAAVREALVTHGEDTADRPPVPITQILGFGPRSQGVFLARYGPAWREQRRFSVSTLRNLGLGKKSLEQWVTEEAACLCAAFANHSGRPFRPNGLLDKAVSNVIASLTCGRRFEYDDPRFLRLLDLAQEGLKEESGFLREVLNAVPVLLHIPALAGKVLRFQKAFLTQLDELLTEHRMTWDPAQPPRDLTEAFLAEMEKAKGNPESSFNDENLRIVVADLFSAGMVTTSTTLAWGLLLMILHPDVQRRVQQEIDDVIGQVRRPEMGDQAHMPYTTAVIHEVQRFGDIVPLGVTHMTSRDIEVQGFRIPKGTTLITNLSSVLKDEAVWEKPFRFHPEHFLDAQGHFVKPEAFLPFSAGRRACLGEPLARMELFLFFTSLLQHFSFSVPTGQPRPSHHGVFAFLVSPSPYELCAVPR

For `C[C@]1(NC(=O)C(=O)c2c(Cl)c(C(=O)Nc3ccc(F)c(F)c3)c3n2CCC3)CC[C@@H](CC(=O)O)CC1` [Compound 17], which half-life at 1 μM ([1]; Human liver microsomes, 1 μM compound, 0.5 mg/mL) is on record?
Its half-life at 1 μM is greater than 2.42 h.

And the CLint scaled at 1 μM ([1]; human liver microsomes)?
Its CLint scaled at 1 μM is less than 8.6 mL/min/kg.

And the microsomal CLint at 1 μM ([1]; human liver microsomes, read-out: CLint(mic))?
The microsomal CLint at 1 μM was less than 9.6 µL/min/mg.

What about the CLint scaled at 1 μM [2] of the same compound?
Its CLint scaled at 1 μM is less than 38 mL/min/kg.

What about the half-life at 1 μM ([2]; 1 μM compound, 0.5 mg/mL) of the same compound?
Its half-life at 1 μM is greater than 2.42 h.

What about the microsomal CLint at 1 μM ([2]; read-out: CLint(mic)) of the same compound?
Its microsomal CLint at 1 μM is less than 9.6 µL/min/mg.

What about the IC50 (CYP2C19) of the same compound?
The IC50 was greater than 50 µM.

What about the IC50 (CYP1A2) of the same compound?
The IC50 was greater than 50 µM.

And the IC50 (CYP2D6)?
Its IC50 is greater than 50 µM.

And the IC50 (CYP2C9)?
Its IC50 is greater than 50 µM.

And the IC50 (CYP3A4)?
The IC50 was greater than 50 µM.

And the EC50 (HBV)?
The EC50 was 0.007 µM.
